Results published in patent US9802960B2 (MILLENNIUM PHARMACEUTICALS, INC., priority 2014, dated 2017).

Target: Human VPS34 (Homo sapiens (Human), UniProt Q8NEB9)
Experiment: Human VPS34 enzyme assay (Adapta TR-FRET)
Assay type: biochemical
Settings: compound concentration 1.11 μM

Sequence of Human VPS34 (Q8NEB9 whole entry): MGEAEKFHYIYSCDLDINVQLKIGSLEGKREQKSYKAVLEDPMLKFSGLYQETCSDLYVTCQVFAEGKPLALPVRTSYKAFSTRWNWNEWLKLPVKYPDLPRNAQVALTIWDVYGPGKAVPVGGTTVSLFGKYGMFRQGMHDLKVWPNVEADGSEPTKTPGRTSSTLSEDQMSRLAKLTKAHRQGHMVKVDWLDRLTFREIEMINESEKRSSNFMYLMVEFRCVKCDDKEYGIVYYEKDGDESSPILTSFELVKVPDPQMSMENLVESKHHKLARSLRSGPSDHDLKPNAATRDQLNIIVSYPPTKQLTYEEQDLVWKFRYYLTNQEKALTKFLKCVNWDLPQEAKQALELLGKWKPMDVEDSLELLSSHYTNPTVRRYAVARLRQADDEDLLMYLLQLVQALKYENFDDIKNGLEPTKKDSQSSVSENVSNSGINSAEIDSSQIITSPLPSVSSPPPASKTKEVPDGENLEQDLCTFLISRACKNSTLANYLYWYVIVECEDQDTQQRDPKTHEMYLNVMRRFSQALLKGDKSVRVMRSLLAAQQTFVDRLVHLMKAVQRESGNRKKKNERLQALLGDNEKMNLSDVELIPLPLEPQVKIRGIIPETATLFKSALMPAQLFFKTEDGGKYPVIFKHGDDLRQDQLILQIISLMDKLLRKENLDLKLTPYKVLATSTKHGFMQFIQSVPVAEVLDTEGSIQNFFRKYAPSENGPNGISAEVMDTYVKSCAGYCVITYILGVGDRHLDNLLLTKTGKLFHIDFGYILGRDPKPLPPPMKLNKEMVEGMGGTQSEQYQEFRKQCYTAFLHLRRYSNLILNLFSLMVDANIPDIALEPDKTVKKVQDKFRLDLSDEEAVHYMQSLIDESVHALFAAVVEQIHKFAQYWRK

Row | Compound | Percent Inhibition [%]
1 | Cc1nc(Nc2cc(-c3cnc(Cl)c(NS(=O)(=O)c4ccc(F)cc4F)c3C)ccn2)ccc1C#N [Compound I-238, N-{6-chloro-2′-[(5-cyano-6-methylpyridin-2-yl)amino]-4-methyl-3,4′-bipyridin-5-yl}-2,4-difluorobenzenesulfonamide] | 93

Same assay, conditions: compound concentration 1.11 μM; read-out: Percent Inhibition

Row | Compound | inhibition at 1.11 µM [%]
2 | Cc1ncc(-c2ccnc(-n3cnc4c(C)nccc43)c2)cc1NS(=O)(=O)N(C)C [Compound I-263, N,N-dimethyl-N-[6-methyl-2′-(4-methyl-1H-imidazo[4,5-c]pyridin-1-yl)-3,4′-bipyridin-5-yl]sulfuric diamide] | 53
3 | CC(=O)Nc1cc(-c2cnc(N)c(S(C)(=O)=O)c2)ccn1 [Compound I-95, N-[6-amino-5-(methylsulfonyl)-3,4′-bipyridin-2′-yl]acetamide] | > 99
4 | COc1nc(C)nc(Nc2cc(-c3cnc(C)c(NS(=O)(=O)c4ccc(F)cc4F)c3)ccn2)n1 [Compound I-375, 2,4-difluoro-N-{2′-[(4-methoxy-6-methyl-1,3,5-triazin-2-yl)amino]-6-methyl-3,4′-bipyridin-5-yl}benzenesulfonamide] | 99
5 | CC(=O)Nc1cc(-c2cnc(C)c(NS(=O)(=O)c3c(Cl)cccc3Cl)c2)ccn1 [Compound I-463, N-(5-{[(2,6-dichlorophenyl)sulfonyl]amino}-6-methyl-3,4′-bipyridin-2′-yl)acetamide] | > 99
6 | CC(=O)Nc1cc(-c2cnc3[nH]cc(CN4CCCC4)c3c2)ccn1 [Compound I-54, N-{4-[3-(pyrrolidin-1-ylmethyl)-1H-pyrrolo[2,3-b]pyridin-5-yl]pyridin-2-yl}acetamide] | 83
7 | Cc1nccc(Nc2cc(-c3cnc(Cl)c(S(=O)(=O)NC45CC(C4)C5)c3)ccn2)n1 [Compound I-242, N-(bicyclo[1.1.1]pent-1-yl)-6-chloro-2′-[(2-methylpyrimidin-4-yl)amino]-3,4′-bipyridine-5-sulfonamide] | 88
8 | CC(=O)Nc1cc(-c2cnc(N)c(S(=O)(=O)Nc3cccnc3)c2)ccn1 [Compound I-204, N-[6-amino-5-(pyridin-3-ylsulfamoyl)-3,4′-bipyridin-2′-yl]acetamide] | > 99
9 | CC(=O)Nc1cc(-c2cnc(N)c(C(=O)N3CCOCC3)c2)ccn1 [Compound I-152, N-[6-amino-5-(morpholin-4-ylcarbonyl)-3,4′-bipyridin-2′-yl]acetamide] | > 99
10 | Cc1cc(Nc2cc(-c3cnc(Cl)c(NS(=O)(=O)c4ccc(F)cc4F)c3C)ccn2)ccn1 [Compound I-272, N-{6-chloro-4-methyl-2′-[(2-methylpyridin-4-yl)amino]-3,4′-bipyridin-5-yl}-2,4-difluorobenzenesulfonamide] | > 99
11 | CC(=O)Nc1cc(-c2cnc(Cl)c(NS(=O)(=O)c3ccc(F)cc3F)c2C)ccn1 [Compound I-153, N-(6-chloro-5-{[(2,4-difluorophenyl)sulfonyl]amino}-4-methyl-3,4′-bipyridin-2′-yl)acetamide] | > 99
12 | Nc1ncc(-c2ccnc(Nc3ccncn3)c2)cc1C(=O)NC12CC(C1)C2 [Compound I-298, 6-amino-N-(bicyclo[1.1.1]pent-1-yl)-2′-(pyrimidin-4-ylamino)-3,4′-bipyridine-5-carboxamide] | 99
13 | CC(=O)Nc1cc(-c2cnc3[nH]cc(CN(C)C)c3c2)ccn1 [Compound I-85] | 90
14 | CC(=O)Nc1cc(-c2cncc(C(=O)/C=C/c3ccc(F)cc3)c2)ccn1 [Compound I-198, N-{5-[(2E)-3-(4-fluorophenyl)prop-2-enoyl]-3,4′-bipyridin-2′-yl}acetamide] | 68
15 | CC(=O)Nc1cc(-c2cnc(Cl)c(C(=O)N(C)C)c2)ccn1 [Compound I-213, 2′-acetamido-6-chloro-N,N-dimethyl-3,4′-bipyridine-5-carboxamide] | > 99
16 | CC(=O)Nc1cc(-c2cnc(C#N)c(NS(=O)(=O)c3ccc(F)cc3F)c2)ccn1 [Compound I-411, N-(6-cyano-5-{[(2,4-difluorophenyl)sulfonyl]amino}-3,4′-bipyridin-2′-yl)acetamide] | 88
17 | Cc1nccc(Nc2cc(-c3cnc(Cl)c(C(=O)O)c3C)ccn2)n1 [Compound I-402, 6-chloro-4-methyl-2′-[(2-methylpyrimidin-4-yl)amino]-3,4′-bipyridine-5-carboxylic acid] | 93
18 | CC(=O)Nc1cc(-c2cnc(Cl)c(S(=O)(=O)NC34CC(C3)C4)c2)ccn1 [Compound I-366, N-[5-(bicyclo[1.1.1]pent-1-ylsulfamoyl)-6-chloro-3,4′-bipyridin-2′-yl]acetamide] | > 99
19 | CC(=O)Nc1cc(-c2cc(OS(=O)(=O)N(C)C)c3ccnn3c2)ccn1 [Compound I-428, 6-(2-acetamidopyridin-4-yl)pyrazolo[1,5-a]pyridin-4-yl dimethylsulfamate] | > 99
20 | CC(=O)Nc1cc(-c2cnc(Cl)c(NS(=O)(=O)c3ccccc3)c2)c(C)cn1 [Compound I-56, N-{6-chloro-5′-methyl-5-[(phenylsulfonyl)amino]-3,4′-bipyridin-2′-yl}acetamide] | > 99
21 | CC(=O)Nc1cc(-c2cnc(C)c(NS(=O)(=O)c3ccc(F)cc3F)c2)ccn1 [Compound I-41, N-(5-{[(2,4-difluorophenyl)sulfonyl]amino}-6-methyl-3,4′-bipyridin-2′-yl)acetamide] | > 99

Row | Compound | inhibition at 1.11 µM [%]
22 | CC(=O)Nc1cc(-c2cncc(N)c2)ccn1 [Compound I-139, N-(5-amino-3,4′-bipyridin-2′-yl)acetamide] | 61
23 | COc1ncc(-c2ccnc(NC(C)=O)c2)cc1C(=O)N(C)C [Compound I-127, 2′-acetamido-6-methoxy-N,N-dimethyl-3,4′-bipyridine-5-carboxamide] | > 99
24 | CC(=O)Nc1cc(-c2cnc3ccn(S(=O)(=O)C4CC4)c3c2)ccn1 [Compound I-199, N-{4-[1-(cyclopropylsulfonyl)-1H-pyrrolo[3,2-b]pyridin-6-yl]pyridin-2-yl}acetamide] | > 99
25 | CC(=O)Nc1cc(-c2cnc(Cl)c(NS(=O)(=O)c3ccc(Br)cc3F)c2C)ccn1 [Compound I-444, N-(5-{[(4-bromo-2-fluorophenyl)sulfonyl]amino}-6-chloro-4-methyl-3,4′-bipyridin-2′-yl)acetamide] | > 99
26 | CC(=O)Nc1cc(-c2cncc(S(=O)(=O)NC3CC3)c2)ccn1 [Compound I-338, N-[5-(cyclopropylsulfamoyl)-3,4′-bipyridin-2′-yl]acetamide] | > 99
27 | CC(=O)Nc1cc(-c2cnc(N)c(S(=O)(=O)NCC3CC3)c2)ccn1 [Compound I-108, N-{6-amino-5-[(cyclopropylmethyl)sulfamoyl]-3,4′-bipyridin-2′-yl}acetamide] | > 99
28 | Cc1ncc(-c2ccnc(NC(=O)C3CC3)c2)cc1C(=O)N(C)C12CC(C1)C2 [Compound I-388, N-(bicyclo[1.1.1]pent-1-yl)-2′-[(cyclopropylcarbonyl)amino]-N,6-dimethyl-3,4′-bipyridine-5-carboxamide] | 98
29 | Cc1nccc(Nc2cc(-c3cnc(Cl)c(N)c3C)ccn2)n1 [Compound I-226, 6-chloro-4-methyl-N-2′-(2-methylpyrimidin-4-yl)-3,4′-bipyridine-2′,5-diamine] | 94
30 | CC(=O)Nc1cc(-c2cnc(C)c(N3CCCNC3=O)c2)ccn1 [Compound I-460, N-[6-methyl-5-(2-oxotetrahydropyrimidin-1 (2H)-yl)-3,4′-bipyridin-2′-yl]acetamide] | 60
31 | Cc1nccc(Nc2cc(-c3cnc(C)c(OCCO)c3)ccn2)n1 [Compound I-424, 2-({6-methyl-2′-[(2-methylpyrimidin-4-yl)amino]-3,4′-bipyridin-5-yl}oxy)ethanol] | > 99
32 | Cc1c(-c2ccnc(Nc3ccnc(C4CC4)n3)c2)cnc(Cl)c1NS(=O)(=O)N(C)C [Compound I-435, N′-{6-chloro-2′-[(2-cyclopropylpyrimidin-4-yl)amino]-4-methyl-3,4′-bipyridin-5-yl}-N,N-dimethylsulfuric diamide] | 96
33 | CCN(CC)C(=O)c1cc(-c2ccnc(NC(C)=O)c2)cnc1N [Compound I-27, 2′-acetamido-6-amino-N,N-diethyl-3,4′-bipyridine-5-carboxamide] | > 99
34 | CC(=O)Nc1cc(-c2cncc(S(=O)(=O)NC(C)(C)C)c2C)ccn1 [Compound I-462, N-(5-(N-(tert-butyl)sulfamoyl)-4-methyl-[3,4′-bipyridin]-2′-yl)acetamide] | 98
35 | CC(=O)Nc1cc(-c2cnc(Cl)c(NS(=O)(=O)c3ccc(F)cc3F)c2C)c(C)cn1 [Compound I-250, N-(6-chloro-5-{[(2,4-difluorophenyl)sulfonyl]amino}-4,5′-dimethyl-3,4′-bipyridin-2′-yl)acetamide] | 99
36 | CC(=O)Nc1cc(-c2cnc(C)c(N3CCCS3(=O)=O)c2)ccn1 [Compound I-88, N-[5-(1,1-dioxidoisothiazolidin-2-yl)-6-methyl-3,4′-bipyridin-2′-yl]acetamide] | > 99
37 | CC(=O)Nc1cc(-c2cnc(Cl)c(NS(=O)(=O)N3CCCC3)c2C)ccn1 [Compound I-488, N-{6-chloro-4-methyl-5-[(pyrrolidin-1-ylsulfonyl)amino]-3,4′-bipyridin-2′-yl}acetamide] | > 99
38 | Cc1ncc(-c2ccnc(NC(=O)N3CCCC3)c2)cc1NS(=O)(=O)c1ccc(F)cc1F [Compound I-313, N-(5-{[(2,4-difluorophenyl)sulfonyl]amino}-6-methyl-3,4′-bipyridin-2′-yl)pyrrolidine-1-carboxamide] | 88
39 | CC(=O)Nc1cc(-c2cnc(N)c(C(=O)NC34CC(C3)C4)c2)ccn1 [Compound I-187, 2′-acetamido-6-amino-N-(bicyclo[1.1.1]pent-1-yl)-3,4′-bipyridine-5-carboxamide] | > 99
40 | CC(=O)Nc1cc(-c2cnc(N(C)C)c(S(=O)(=O)NC(C)(C)C)c2C)ccn1 [Compound I-487, N-[5-(tert-butylsulfamoyl)-6-(dimethylamino)-4-methyl-3,4′-bipyridin-2′-yl]acetamide] | 71
